Test [1] concerns the target T1, human neutrophil-derived MMP-9 trimers (Homo sapiens, UniProt P14780).
T1 construct: purchased Sigma-Aldrich 444232; host or cells: human neutrophils (natural protein)
As to the kind of experiment: Gelatin degradation assay, neutrophil-derived MMP-9 trimers. The format is biochemical. As to conditions: for IC25 / IC50 / IC75: MMP-9 isolated from human neutrophils, tri, gelatin degradation. Here is the method:
Compounds 5 and 7 were synthesized as previously reported. Full-length human proMMP-9 was produced by recombinant expression in Sf9 insect cells and purified by gelatin-Sepharose chromatography as previously described. Stable full-length proMMP-9 monomers and trimers were separated by glycerol gradient ultracentrifugation as previously described. ProMMP-9 mixture and the separated monomers and trimers were activated by incubation with the catalytic domain of MMP-3 (cat. No. 444217, Merck Millipore, Darmstadt, Germany) as previously described. Activation of proMMP-9 was confirmed by a band shift of ±10 kDa, corresponding to the removal of the auto-inhibitory propeptide domain and by detection of gelatinolytic activity with a previously described gelatin degradation assay. MMP-9 monomers and trimers purified from human neutrophils were purchased (Cat. No. 444,231 and 444232, Sigma-Aldrich, St. Louis, MO, USA). Examples of sample purities and activations can be found in Supplementary Figure S1. Recombinant human proMMP-2 (CHO cell-derived), proMMP-3 (NS0 cell-derived), proMMP-7 (NS0 cell-derived) and proMMP-8 (NS0 cell-derived) were purchased from R & D systems (Minneapolis, MN, USA), dissolved in assay buffer (150 mM NaCl, 5 mM CaCl2, 0.01% Tween-20, 50 mM Tris, pH 7.4) to a concentration of 100 µg/mL and activated by incubation with 1 mM p-aminophenylmercuric acetate for, respectively, 1h, 6h, 2h and 1h. Activation of MMPs was confirmed by a band shift of approximately 10 kDa, corresponding to the removal of the propeptide domain. MMP-14/MT1-MMP (NS0 cell-derived) was also purchased from R & D systems (Minneapolis, MN, USA) and activated by incubation with recombinant human furin (cat. No. 1503-SE-010, R & D systems, Minneapolis, MO, USA) in activation buffer (50 mM Tris, 1 mM CaCl2, 0.5% Brij-35, pH 9) for 1.5 h and activity was tested in assay buffer (50 mM Tris, 3 mM CaCl2, 1 µM ZnCl2, pH 8.5). Active human neutrophil elastase (NE) was purchased from Abcam (Cambridge, UK) and for activity assays of NE the assay buffer was replaced by 200 mM Tris, pH 8.8. ADAM17/TACE (Sf 21 (baculovirus)-derived, R & D systems, Minneapolis, MO, USA) was diluted and evaluated in 25 mM Tris, 2.5 μM ZnCl2, 0.005% Brij-35, pH 9.0. All stocks of the compounds were evaluated for the presence of endotoxin using the EndoZyme II assay (Hyglos bioMérieux, Bernried am Starnberger See, Germany). Endotoxin levels in all concentrated stocks (2.5 mg/mL) were below the accepted limit of 0.5 EU/mL.
To determine the inhibition of gelatinolytic activity, we used a previously optimized gelatin degradation assay. Activated MMP-9, activated MMP-2, neutrophil elastase or supernatants of stimulated neutrophils, were incubated with different concentrations of inhibitors and incubated for 30 min at 37 °C. Next, dye-quenched gelatin (DQ™-gelatin, Invitrogen, Carlsbad, CA, USA) was added at a final concentration of 2.5 µg/mL and the increase in fluorescence over time was measured with the CLARIOstar microplate reader (BMG Labtech, Ortenberg, Germany). For other MMPs, the OmniMMP substrate peptide (Mca-PLGL-Dpa-AR-NH2, cat. no. BML-P126-0001, Enzo Life Sciences, Farmingdale, NY, USA) was used at a final concentration of 2.5 µg/mL. For ADAM17 the fluorogenic peptide Mca-PLAQAV-Dpa-RSSSR-NH2 (ES003, R & D systems, Minneapolis, MO, USA) and for neutrophil elastase the fluorogenic substrate MeOSuc-AAPV-AMC (cat. no. 324740, Merck Millipore, Darmstadt, Germany) were used. Proteolytic activity was determined by linear regression of the fluorescence curve and the percentage inhibition was calculated through comparison with the positive control (no inhibitors). When testing supernatants from human neutrophils, the assay was performed in the presence of 20 µM neutrophil elastase inhibitor (Elastase Inhibitor IV, Calbiochem, Darmstadt, Germany).

For a further test, the target named is T2, MMP-2 (Homo sapiens, UniProt P08253).
T2 construct: purchased R & D systems; host or cells: CHO cells
T2 sequence (P08253 110-660): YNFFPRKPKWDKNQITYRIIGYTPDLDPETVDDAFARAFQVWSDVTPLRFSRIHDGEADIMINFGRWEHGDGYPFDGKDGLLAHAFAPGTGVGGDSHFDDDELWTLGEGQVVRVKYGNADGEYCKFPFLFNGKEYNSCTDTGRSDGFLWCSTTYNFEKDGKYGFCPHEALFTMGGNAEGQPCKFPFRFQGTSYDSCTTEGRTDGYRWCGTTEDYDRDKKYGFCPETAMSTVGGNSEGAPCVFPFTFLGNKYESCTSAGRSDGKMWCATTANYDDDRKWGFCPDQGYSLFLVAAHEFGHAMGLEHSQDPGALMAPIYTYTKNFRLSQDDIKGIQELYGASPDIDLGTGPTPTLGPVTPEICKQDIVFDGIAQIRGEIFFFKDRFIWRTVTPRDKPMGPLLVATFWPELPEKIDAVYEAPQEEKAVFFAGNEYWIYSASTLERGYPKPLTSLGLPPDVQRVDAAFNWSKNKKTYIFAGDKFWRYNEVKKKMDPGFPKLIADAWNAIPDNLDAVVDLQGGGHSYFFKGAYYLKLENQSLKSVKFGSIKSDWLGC
As to the kind of experiment: MMP-2 OmniMMP peptide assay. The format is biochemical. As to conditions: OmniMMP substrate peptide. Here is the method:
Compounds 5 and 7 were synthesized as previously reported. Full-length human proMMP-9 was produced by recombinant expression in Sf9 insect cells and purified by gelatin-Sepharose chromatography as previously described. Stable full-length proMMP-9 monomers and trimers were separated by glycerol gradient ultracentrifugation as previously described. ProMMP-9 mixture and the separated monomers and trimers were activated by incubation with the catalytic domain of MMP-3 (cat. No. 444217, Merck Millipore, Darmstadt, Germany) as previously described. Activation of proMMP-9 was confirmed by a band shift of ±10 kDa, corresponding to the removal of the auto-inhibitory propeptide domain and by detection of gelatinolytic activity with a previously described gelatin degradation assay. […] ADAM17/TACE (Sf 21 (baculovirus)-derived, R & D systems, Minneapolis, MO, USA) was diluted and evaluated in 25 mM Tris, 2.5 μM ZnCl2, 0.005% Brij-35, pH 9.0. All stocks of the compounds were evaluated for the presence of endotoxin using the EndoZyme II assay (Hyglos bioMérieux, Bernried am Starnberger See, Germany). […]
To determine the inhibition of gelatinolytic activity, we used a previously optimized gelatin degradation assay. […] Proteolytic activity was determined by linear regression of the fluorescence curve and the percentage inhibition was calculated through comparison with the positive control (no inhibitors). […]

“And” between values parts separate entries of the source, which are not always exact repeats. Equal entries are not always repeated.

T1 sequence (P14780 107-707 limits assumed): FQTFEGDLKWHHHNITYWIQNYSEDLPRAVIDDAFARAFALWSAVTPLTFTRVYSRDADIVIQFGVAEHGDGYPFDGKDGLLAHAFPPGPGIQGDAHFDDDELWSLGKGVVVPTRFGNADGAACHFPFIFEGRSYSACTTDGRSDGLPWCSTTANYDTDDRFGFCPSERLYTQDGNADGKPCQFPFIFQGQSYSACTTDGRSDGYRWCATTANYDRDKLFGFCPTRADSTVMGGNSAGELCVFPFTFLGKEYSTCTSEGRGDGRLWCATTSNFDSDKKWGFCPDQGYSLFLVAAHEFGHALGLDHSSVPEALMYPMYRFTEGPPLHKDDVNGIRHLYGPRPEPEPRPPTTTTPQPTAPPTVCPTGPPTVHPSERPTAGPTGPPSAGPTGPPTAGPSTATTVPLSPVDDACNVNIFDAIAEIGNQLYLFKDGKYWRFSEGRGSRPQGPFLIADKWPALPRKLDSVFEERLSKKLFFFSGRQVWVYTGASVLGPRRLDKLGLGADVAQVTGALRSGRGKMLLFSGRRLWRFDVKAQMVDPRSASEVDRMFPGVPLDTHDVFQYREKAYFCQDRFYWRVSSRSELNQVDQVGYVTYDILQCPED

In general, IC25 refers to the point of the concentration-response curve where the effect stands at 25%. A higher IC25 goes with a need for much substance. A word on the IC50: it is the concentration that inhibits the measured activity by half. Lower therefore signals greater potency in that assay. The term IC75 denotes the point of the concentration-response curve where the effect stands at 75%. Lower therefore signals an effect from little substance. Turning to `CC(C)[C@H](C(=O)O)N(CCNC(=O)c1cccc(C(=O)NCCN([C@@H](C(=O)O)C(C)C)S(=O)(=O)c2ccc(-c3ccccc3)cc2)c1)S(=O)(=O)c1ccc(-c2ccccc2)cc1` [Compound 7], in test [1], the concentration for an effect of 25% (IC25) is 0.008 nM, half-maximal inhibition (IC50) was put at 0.066 nM and the IC75 worked out at 0.6 nM. Also, in test [1] (MMP-9 purified from human neutrophils, gelatin substrate), the “fold difference between monomeric and trimeric MMP-9” value was determined as 650 fold. For the same compound, the IC50 on MMP-2 was ~5 nM and 5 nM.

On to `CC(C)[C@H](C(=O)O)N(CCNC(=O)c1ccccc1)S(=O)(=O)c1ccc(-c2ccccc2)cc1` [Compound 5], for which, in test [1], the 25% effect concentration (IC25) worked out at 479 nM, 4220 nM corresponded to half-maximal inhibition (IC50) and the 75% effect concentration (IC75) stood at 17212 nM. The same compound had a 50% inhibitory concentration (IC50) at MMP-2 of 1030 nM.
